From EPA's ToxValDB 9.5 (doi:10.2903/j.efsa.2017.4903)

Legend:
Rattus norvegicus = settings: for LOAEL: subchronic, duration: 90 days, clinical chemistry; for NOAEL: reproduction developmental
Folsomia candida = settings: chronic/long-term; duration: 28 days; mortality
Pontoscolex corethrurus = settings: chronic/long-term
Pleurozium sp. = settings: acute; duration: 72 hours; other
Hypoaspis aculeifer = settings: chronic/long-term; duration: 14 days; reproduction
Apis mellifera = settings: acute, mortality
Danio rerio = settings: chronic; reproduction
Colinus virginianus = settings: reproduction developmental
Coturnix japonica = settings: acute; oral; mortality

| Structure (SMILES) | LOAEL (Rattus norvegicus) | NOEC (Folsomia candida) | NOEC (Pontoscolex corethrurus; reproduction) | NOEC (Pleurozium sp.) | NOEC (Hypoaspis aculeifer) | LD50 (Apis mellifera; dermal) | LD50 (Apis mellifera; oral, unspecified) | NOEC (Pontoscolex corethrurus; growth) | NOEC (Danio rerio) | NOAEL (Canidae; acute, oral, Beagle, mobility) | NOAEL (Canidae; chronic, duration: 60 weeks, oral, diet, Beagle, organ weight) | NOAEL (Canidae; short-term, duration: 28 days, Dog Other) | NOAEL (Colinus virginianus) | LD50 (Rattus norvegicus; acute, oral, mortality) | NOAEL (Rattus norvegicus; body weight) | NOAEL (Rattus norvegicus; immunology) | LD50 (Coturnix japonica) |
| --- | --- | --- | --- | --- | --- | --- | --- | --- | --- | --- | --- | --- | --- | --- | --- | --- | --- |
| Nc1ccc(O)c(Cl)c1 [3-Chloro-4-hydroxyaniline] | 10 mg/kg-day |  |  |  |  |  |  |  |  |  |  |  |  |  |  |  |  |
| Nc1cccc(Cl)c1 [3-Chloroaniline] | 10 mg/kg-day | 9.5 mg/kg | 125 mg/kg | 1 mg/L | 50 mg/kg |  |  |  |  |  |  |  |  |  |  |  |  |
| CC(C)OC(=O)Nc1cccc(Cl)c1 [Chlorpropham] |  | 17.2 mg/kg |  |  |  | 96.1 µg/piece | 505 µg/piece | 30 mg/kg | 0.32 mg/L | 50 mg/kg-day | 5 mg/kg-day | 5 mg/kg-day | 94.7 mg/kg-day | 4200 mg/kg-day | 50 mg/kg-day | 44.5 mg/kg-day | > 2000 mg/kg-day |
